Reference: PMC2546444, “Anti-Plasmodium Activity of Angiotensin II and Related Synthetic Peptides” (PLoS ONE, 2008)
Positions of bridges follow the written chain, without caps; N, C: chain ends. Residues, ends and D or L forms follow the SMILES beside them. No end group written: not given here.

Experiments:
fresh human erythrocytes = experiment: Hemolytic activity; assay type: cell-based; details: peptide 0.19 to 100 μM; 0.4% human erythrocytes in PBS pH 7.4, 1 h at 37°C, read at 405 nm; triplicate
Procedure: Hemolytic activity was evaluated on fresh human erythrocytes washed three times with phosphate-buffered saline (PBS: 10 mM Na2HPO4, 1.8 mM K2-HPO4, pH 7.4, containing 140 mM NaCl and 2.7 mM KCl) ). Serial dilutions of the peptides with concentrations varying between 0.19–100 μM were incubated in Eppendorf tubes with a suspension of 0.4% erythrocytes in PBS. After 1 h at 37°C, the test tubes were centrifuged at 300g for 5 min at 5°C. Fifty microliter aliquots of the supernatants were transferred to 96-well plates and hemolysis was monitored at 405 nm using a microtiter plate reader. Negative and positive controls were prepared in PBS and in PBS supplemented with 0.1% SDS, respectively. Ang ll of the experiments was performed in triplicate.

[1] = 25% pooled non-heat inactivated human serum in PBS, 37°C; 20 μl of 10 mg/ml stock in 1 ml; sampling 0-120 min; LC/ESI-MS peak area; triplicates; data not shown
Ae.aegypti mosquitoes = experiment: Survival of mosquitoes injected with ang II; assay type: in vivo, Aedes aegypti; details: 0.5 μl ang II at 10-200 μM intrathoracically; chi-square test p>0.5; mean of three independent experiments
Procedure: Supplementary file pone.0003296.s001.tif: Figure S1 Survival of mosquitoes injected with different ang II concentrations. Ae.aegypti mosquitoes (10 females) were injected intrathoracically (0.5 μl) of ang II at 10 μM, 20 μM, 50 μM, 60 μM, 100 μM and 200 μM. After 24 hour the survival of mosquitoes was scored. […] Results are the mean of three independent experiments (20 mosquitoes/group), and bars represent standard errors of the mean. (0.18 MB TIF) Click here for additional data file.

Compound	Hemolytic Activity (fresh human erythrocytes)	time to degradation in serum	time within which the peptide was degraded in serum [1]	effect on mosquito survival after 24 hour (Ae.aegypti mosquitoes)
CC[C@H](C)[C@H](NC(=O)[C@H](Cc1ccc(O)cc1)NC(=O)[C@@H](NC(=O)[C@H](CCCNC(=N)N)NC(=O)[C@@H]1CCCCNC(=O)C[C@H](N)C(=O)N[C@@H](CC(=O)O)C(=O)N1)C(C)C)C(=O)N[C@@H](Cc1c[nH]cn1)C(=O)N1CCC[C@H]1C(=O)N[C@@H](Cc1ccccc1)C(=O)O [VC1, Cyclo(0-1a)[Asp^0, endo-(Lys^1a)]-All] (H-DDKRVYIHPF-OH; lactam 1-3)	neg	< 30 min		
CC[C@H](C)[C@H](NC(=O)[C@H](Cc1ccc(O)cc1)NC(=O)[C@@H](NC(=O)[C@@H]1CCCCNC(=O)C[C@H](NC(=O)[C@@H](N)CC(=O)O)C(=O)N[C@@H](CCCNC(=N)N)C(=O)N1)C(C)C)C(=O)N[C@@H](Cc1c[nH]cn1)C(=O)N1CCC[C@H]1C(=O)N[C@@H](Cc1ccccc1)C(=O)O [VC3, Cyclo(1a-2a)[endo-(Asp^1a), endo-(Lys^2a)]-All] (H-DDRKVYIHPF-OH; lactam 2-4)	neg	< 30 min		
CC[C@H](C)[C@H](NC(=O)[C@H](Cc1ccc(O)cc1)NC(=O)[C@@H]1CCCCNC(=O)C[C@H](NC(=O)[C@H](CCCNC(=N)N)NC(=O)[C@@H](N)CC(=O)O)C(=O)N[C@@H](C(C)C)C(=O)N1)C(=O)N[C@@H](Cc1c[nH]cn1)C(=O)N1CCC[C@H]1C(=O)N[C@@H](Cc1ccccc1)C(=O)O [VC5, Cyclo(2a-3a)[endo-(Asp^2a), endo-(Lys^3a)]-All] (H-DRDVKYIHPF-OH; lactam 3-5)	neg	< 30 min		
CC[C@H](C)[C@H](NC(=O)[C@H](Cc1ccc(O)cc1)NC(=O)[C@@H](NC(=O)[C@H](CCCNC(=N)N)NC(=O)[C@@H](N)CC(=O)O)C(C)C)C(=O)N[C@@H](Cc1cnc[nH]1)C(=O)N1CCC[C@H]1C(=O)N[C@@H](Cc1ccccc1)C(=O)O [ang II, Angiotensin II]	neg		≤ 30 min	no significant effects
DDKRVYIHPF [VC2, [Asp^0, endo-(Lys^1a)]-All]	neg	< 30 min		
DDRKVYIHPF [VC4, [endo-(Asp^1a), endo-(Lys^2a)]-All]	neg	< 30 min		
DRDVKYIHPF [VC6, [endo-(Asp^2a), endo-(Lys^3a)]-All]	neg	< 30 min		
